According to PubChem BioAssay (NCI):
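Dose response: 5 concentrations. Exposure: 48 h. Format: 96-well plates. Endpoint: linear interpolation; highest concentration if not reached. TGI is the concentration that stops growth completely.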

Tests used:
Assay in all cases: NCI-60 cell line screen, 48 h
[1] = system: DU-145 prostate
[2] = system: PC-3 prostate
[3] = system: M14 melanoma
[4] = system: 786-0 renal
[5] = system: ACHN renal
[6] = system: NCI/ADR-RES ovarian
[7] = system: SF-295 CNS
[8] = system: SK-MEL-5 melanoma
[9] = system: HCT-116 colon
[10] = system: TK-10 renal
[11] = system: U251 CNS
[12] = system: LOX IMVI melanoma
[13] = system: HOP-92 NSCLC
[14] = system: OVCAR-3 ovarian
[15] = system: K-562 leukemia
[16] = system: OVCAR-8 ovarian
[17] = system: CCRF-CEM leukemia
[18] = system: CAKI-1 renal
[19] = system: KM12 colon
[20] = system: RXF 393 renal
[21] = system: A498 renal
[22] = system: SNB-19 CNS
[23] = system: HOP-62 NSCLC
[24] = system: MDA-N
[25] = system: SNB-75 CNS
[26] = system: IGROV1 ovarian
[27] = system: A549 NSCLC
[28] = system: EKVX NSCLC
[29] = system: SW-620 colon
[30] = system: SN12C renal
[31] = system: HL-60(TB) leukemia
[32] = system: SK-OV-3 ovarian
[33] = system: NCI-H460 lung
[34] = system: UO-31 renal
[35] = system: T-47D breast
[36] = system: SF-268 CNS
[37] = system: RPMI-8226 leukemia
[38] = system: BT-549 breast
[39] = system: OVCAR-5 ovarian
[40] = system: MCF7 breast
[41] = system: MOLT-4 leukemia
[42] = system: MDA-MB-231 breast
[43] = system: OVCAR-4 ovarian
[44] = system: SK-MEL-28 melanoma
[45] = system: HCC-2998 colon
[46] = system: HCT-15 colon
[47] = system: UACC-257 melanoma
[48] = system: SK-MEL-2 melanoma
[49] = system: MDA-MB-435
[50] = system: SF-539 CNS
[51] = system: COLO 205 colon
[52] = system: HT29 colon
[53] = system: UACC-62 melanoma

`COCCCN(Cc1cc(OC)c(OC)c(OC)c1)C(=S)Nc1cccc(Cl)c1` gave a TGI [1] greater than 100 µM, a TGI [2] of 68.2 µM and a TGI [3] of 51.8 µM. For the same compound, the TGI [4] was 85.4 µM, the TGI [5] was greater than 100 µM and the TGI [6] was 63.1 µM. It also gave a TGI [7] greater than 100 µM, a TGI [8] of 30 µM and a TGI [9] of 45.1 µM. For the same compound, the TGI [10] was greater than 100 µM, the TGI [11] was greater than 100 µM and the TGI [12] was 51.1 µM. For the same compound, the TGI [13] was 53.7 µM, the TGI [14] was greater than 100 µM and the TGI [15] was 69.2 µM. It also gave a TGI [16] of 72.7 µM, a TGI [17] of 55.7 µM and a TGI [18] greater than 100 µM. The TGI [19] was 67.6 µM, the TGI [20] was 96.4 µM and the TGI [21] was greater than 100 µM. For the same compound, the TGI [22] was greater than 100 µM, the TGI [23] was greater than 100 µM and the TGI [24] was 45.7 µM. For the same compound, the TGI [25] was 70.7 µM, the TGI [26] was greater than 100 µM and the TGI [27] was greater than 100 µM. For the same compound, the TGI [28] was 52.4 µM, the TGI [29] was greater than 100 µM and the TGI [30] was 92.5 µM. It also gave a TGI [31] of 45.4 µM, a TGI [32] greater than 100 µM and a TGI [33] greater than 100 µM. The TGI [34] was 90.5 µM, the TGI [35] was 49.2 µM and the TGI [36] was 63.6 µM. The TGI [37] was 37.4 µM, the TGI [38] was 64.9 µM and the TGI [39] was 75.1 µM. For the same compound, the TGI [40] was 62.1 µM, the TGI [41] was 33.1 µM and the TGI [42] was 83.5 µM. The TGI [43] was 91.4 µM, the TGI [44] was 85.1 µM and the TGI [45] was greater than 100 µM. For the same compound, the TGI [46] was 61.1 µM, the TGI [47] was 48.5 µM and the TGI [48] was 52.1 µM. For the same compound, the TGI [49] was 48.4 µM, the TGI [50] was greater than 100 µM and the TGI [51] was greater than 100 µM. The TGI [52] was 50.2 µM and the TGI [53] was 44.7 µM.
